Test results reported in patent US8093220B2, “Combination of an HDAC inhibitor and an antimetabolite” (Novartis AG, priority 2006, dated 2012).
Values joined by “and” are separate entries in the source; they are usually repeats but may differ in a detail not shown here. Equal values may be shown once.

How the values were obtained:
AML cell line U937 = experiment: Western immunoblotting of U937 cells for acetylated tubulin, p21 and PARP; assay type: cell-based; details: 2 μM 5-aza, 10 nM LBH589 or combination, 24 hours, western blot (FIG. 1)
Protocol: The AML cell line U937 is incubated with LBH589 or 5-aza as single agents or in combination.
U937 cells are treated with 2 μM 5-aza, 10 nM LBH589 or with a combination of 5-aza+LBH589 for 24 hours. Cells are lysed, proteins separated by SDS-PAGE and western immunoblotting analysis done with antibodies against acetylated tubulin, p21, PARP and β-actin (control for loading).

[1] = test system: primary human AML blast cells; experiment: Loss of viability of primary patient AML cells, trypan-blue exclusion; assay type: cell-based; details: one table row per patient (1-6)
Protocol: To further test the combination of LBH589+5-aza to induce cell death in AML, the U937 AML cell lines and fresh leukemia blast cells from AML patients are incubated with the compounds either as a combination or as single agents. Cell death is either monitored by cells staining for Annexin V (signifying apoptosis) or by counting live cells by trypan-blue exclusion. […] Importantly, no antagonism is observed when the two compounds are combined. […] Trypan-blue exclusion is used to count number of viable cells and percentage of dead cells for each treatment calculated and tabulated.

| Structure (SMILES) | PARP cleavage as a measure of apoptotic cell death (AML cell line U937) | acetylation of alpha-tubulin (AML cell line U937) | expression of the cell growth inhibitor p21 (AML cell line U937) | % Cell Death ([1]; Aza 1 μM, listed as Aza) | % Cell Death ([1]; Aza 2 μM, listed as Aza) | % Cell Death ([1]; LBH-589 10 nM) | % Cell Death ([1]; LBH-589 50 nM) |
| --- | --- | --- | --- | --- | --- | --- | --- |
| Nc1ncn([C@@H]2O[C@H](CO)[C@@H](O)[C@H]2O)c(=O)n1 [5-aza, 5-azacytidine] | only a slight PARP cleavage | not | induces the expression | 8.6% and 16.5% and 25.9% and 13.1% and 15% and 19.3% | 10.1% and 19.3% and 28.5% and 15.9% and 22.6% and 40.4% | – | – |
| Cc1[nH]c2ccccc2c1CCNCc1ccc(/C=C/C(=O)NO)cc1 [LBH589, N-hydroxy-3-[4-[[[2-(2-methyl-1H-indol-3-yl)-ethyl]-amino]methyl]phenyl]-2E-2-propenamide] | only a slight PARP cleavage | induces increased acetylation | induces the expression | – | – | 15.4% and 22.3% and 41.9% and 19.5% and 73.7% and 35.9% | 45.1% and 34.2% and 62.6% and 41.6% and 85.6% and 48.9% |
